{"source": "patent US10011833B2", "about": "“Bridged bicyclic nucleosides” (MIRAGEN THERAPEUTICS, INC., priority 2013, dated 2018)", "key": {"[1]": {"system": "mature human miR-208a", "assay": "Duplex melting temperature (Tm) of anti-208a oligonucleotides annealed to complementary RNA", "type": "binding", "details": "for Tm / ΔTm, DNA / ΔTm/mod / ΔTm, parent: RNA complement; for Tm: duplex 1 μM in 0.9% NaCl, in °C (unit assumed); for ΔTm, DNA: versus fully DNA oligo 10931; for ΔTm, parent: versus parent 10101", "experimental": "The melting temperature (Tm) of modified 16 nucleotide phosphodiester strands were determined and compared to the Tm of identical 16 nucleotide sequences having natural phosphodiester DNA nucleotides. Specifically, the relative aminoCBBN melting temperature (Tm) compared to the 2′-deoxynucleoside or oxoCBBN nucleoside with the same nucleobase was determined on a per incorporation basis by determining the difference between the melting temperature of the amino-modified 16 nucleotide length phosphodiester strand and that of the identical 16 nucleotide sequence utilizing either the 2′-deoxynucleoside or oxoCBBN phosphodiester DNA nucleotide. Tm differences of substitutions were compared only when they were placed in the same position of the sequence.\nFor example, the modified anti-208a oligonucleotides were annealed to the complementary sequence, twenty-two nucleotides in length, comprised of RNA nucleosides and a phosphate backbone. The complementary sequence was identical to the endogenous mature miRNA. Thermal denaturation temperatures (Tm) were measured as a maximum of the first derivative plot of melting curvex (A260 vs. Temp). The duplexes were constituted at 1 μM in a 0.9% NaCl buffer. Temperature was ramped from 25° C. to 95° C. at 1° C./min and OD's at 260 nm were read once per 30 seconds. Tm values are averages of at least two measurements.\nDuplex melting temperatures for various modifications of a 16 nucleotide sequence, complementary to a nucleotide sequence of mature human miR-208a were measured using a Varian Cary 1E UV-Vis Spectrophotometer. Anti-miRNA 208a oligonucleotide sequences tested included a fully DNA phosphodiester (compound M-10931), four DNA phosphodiester oligonucleotides with 1, 2 or 3 aminoCBBN thymidine residues in place of dT residues (compounds M-1915, M-1916, M-1917, and M-11918), mixed 9 LNA/7 DNA phosphorothioate oligonucleotide (compound M-10101), and 2 mixed LNA/DNA/aminoCBBN phosphorothioate oligonucleotides where LNA thymidines of the parent compound, compound M-10101, were replaced with either 1 or 2 aminoCBBN residues (compounds M-11919 and M-11920). Duplexes were constituted at 1 μM in 0.9% NaCl. Temperature was ramped from 25° C. to 95° C. at 1° C./min and OD's at 260 nm were read once per 30 seconds."}, "[2]": {"system": "miR-208a", "assay": "Dual-luciferase reporter assay in HeLa cell line stably expressing miR-208a", "type": "cell-based", "details": "HeLa cells expressing miR-208a, 24 hours at 37° C., FIG. 6", "experimental": "A HeLa cell line stably expressing miR-208a was generated. Specifically, a miRNA expression vector (Cell BioLabs, Inc.) expressing miR-208a was transfected into HeLa cells. Cells were then selected using a puromycin selection screen and clones which had detectable miR-208a expression as measured by qPCR were isolated (Ct value=˜30).\nThe cells were plated in a black-walled 96 well plate with 10,000 cells per well. After twenty-four hours following plating, the cells were transfected with a dual-luciferase plasmid containing the miR-208a binding site in the 3′ UTR of the renilla gene and various miR-208a inhibitors (compounds M-11919, M-11920, and M-10101). Compound M-10591 was a non-targeting control. The cells were incubated for 24 hours at 37° C. and then both firefly (as a transfection normalization) and renilla levels were measured by luminescence using the Dual-Luciferase Reporter Assay System (Promega). Data was normalized to cells treated with only the miR-208a dual luciferase plasmid (psi check 208a)."}, "[3]": {"system": "RNA Complement", "details": "9mer, phosphate backbone, cited from earlier work; for Tm: RNA complement, literature values"}, "[4]": {"details": "PS backbone, per modification versus parent 10101"}}, "note": "“Also recorded” adds a separate entry of the source.", "data": [{"substance": "dC;dT;dT;dT;dT;dT;dG;dC;dT;dC;dG;dT;dC;dT;dT;dA (antisense CTTTTTGCTCGTCTTA; DNA, backbone not given here) [Oligo 10931, reference compound]", "values": [{"measurement": "Tm", "setting": "[1]; phosphate backbone", "result": 53.1}, {"measurement": "ΔTm, DNA", "setting": "[1]; phosphate backbone", "result": 0, "unit": "°C"}]}, {"substance": "ICs;dTs;dTs;dTs;ITs;ITs;dGs;ICs;dTs;ICs;IGs;dTs;ICs;dTs;ITs;IA [Oligo 10101, reference compound]", "values": [{"measurement": "Tm", "setting": "[1]; PS backbone, 10101-like", "result": 86.7}]}, {"substance": "lCs.dTs.dTs.dTs.abTs.abTs.dGs.lCs.dTs.lCs.lGs.dTs. lCs.dTs.lTs.lA [Oligo 11919]", "values": [{"measurement": "affinity for the miR-208a RNA (Tm data), in words", "setting": "[1]; PS backbone oligonucleotides", "result": "less affinity for the miR-208a RNA than the M-11920 compound"}, {"measurement": "Tm", "setting": "[1]; PS backbone, 10101-like", "result": 80.04}, {"measurement": "ΔTm/mod", "setting": "[1]; [4]", "result": -6.66, "unit": "° C./modification"}, {"measurement": "ΔTm, parent", "setting": "[1]; PS backbone", "result": -6.66}, {"measurement": "miR208a inhibition activity (dual-luciferase reporter), in words", "setting": "[2]", "result": "slightly less activity compared to the other two inhibitors"}]}, {"substance": "dG;IT;dG;dA;IT;dA;IT;dG;dC [DNA_9mer_PO_3LNA-T]", "values": [{"measurement": "Tm", "setting": "[3]", "result": 50, "unit": "°C"}]}, {"substance": "dG;aIT;dG;dA;aIT;dA;aIT;dG;dC [DNA_9mer_PO_3aminoLNA-T]", "values": [{"measurement": "Tm", "setting": "[3]", "result": 47, "unit": "°C"}, {"measurement": "ΔTm/mod", "setting": "[3]; versus 3LNA-T parent, literature", "result": -1, "unit": "° C./modification"}]}, {"substance": "lCs.dTs.dTs.dTs.lTs.lTs.dGs.lCs.dTs.lCs.lGs.dTs.lCs. dTs.abTs.lA [Oligo 11920]", "values": [{"measurement": "Tm", "setting": "[1]; PS backbone, 10101-like", "result": 85.125}, {"measurement": "ΔTm/mod", "setting": "[1]; [4]", "result": -0.7875, "unit": "° C./modification"}, {"measurement": "ΔTm, parent", "setting": "[1]; PS backbone", "result": -1.575}, {"measurement": "miR208a inhibition activity (dual-luciferase reporter), in words", "setting": "[2]; listed as M-11920", "result": "comparable activity as compound M-10101; also recorded: retains all activity of the optimized M-10101 compound"}]}, {"substance": "bC.bT.bT.bT.bT.bT.dG.bC.bT.bC.dG.bT.bC.bT.bT. dA [Oligo 10924, reference compound]", "values": [{"measurement": "Tm", "setting": "[1]; phosphate backbone", "result": 89.8}, {"measurement": "ΔTm/mod", "setting": "[1]; phosphate backbone, per modification versus DNA", "result": 2.8, "unit": "° C./modification"}, {"measurement": "ΔTm, DNA", "setting": "[1]; phosphate backbone", "result": 36.7, "unit": "°C"}]}]}
